Source: patent publication US20240351996A1, “CDK19-SELECTIVE INHIBITORS, AND METHODS OF USE THEREOF” (CZ BIOHUB SF, LLC, priority 2022, published 2024)

Columns and labels:
[1] = molecular target: CDK8 (Homo sapiens, UniProt P49336); assay: LanthaScreen europium kinase binding assay (FRET displacement), CDK8
Experimental: (§1) FRET Displacement Assay to Measure IC50: The CDK19/CDK8 IC50 values were measured to evaluate activity and to determine CDK19/CDK8 selectivity. The IC50 values of the disclosed compounds was measured using a LanthaScreen™ europium kinase binding assay (ThermoFisher), as described herein.
[…] An aliquot of the cocktail solution (10 μL) was added to each well of a LUMITRAC™ 200:384 flat bottom, non-treated microtiter white plate. The plate was then covered to protect light sensitive reagents and incubated for 30 min at room temperature to equilibrate before addition of any inhibitors.
(§2) A serial dilution of the compounds was titrated into each well using an automated liquid handling Staccato integrated system at the following concentration(s) (Log10 Molar [C]): −4.5, −5.0, −5.5, −6.0, −6.5, −7.0, −7.5, −8.0 so that a complete dose-response could be calculated. A Tecan microplate reader infinite m200 instrument was then used to measure the FRET signal of each individual well using an excitation of 317/20 nm, emission europium of 620/12 nm, and emission kinase tracer of 665/12 nm after a 3 h incubation period at room temperature until steady-state kinetics were achieved.
(§3) Results were performed in duplicate and were repeated a total of 3 independent times before data was normalized to the DMSO control group and IC50 values reported.

[2] = molecular target: CDK19/CycC (Homo sapiens, UniProt Q9BWU1); assay: LanthaScreen europium kinase binding assay (FRET displacement), CDK19; conditions: for CDK19 Selectivity: CDK19/CDK8 selectivity based on IC50 values; for IC50: his-tagged CDK19/CycC 5 nM, tracer 10 nM, 3 h incubation
Chain of CDK19/CycC (Q9BWU1 whole entry): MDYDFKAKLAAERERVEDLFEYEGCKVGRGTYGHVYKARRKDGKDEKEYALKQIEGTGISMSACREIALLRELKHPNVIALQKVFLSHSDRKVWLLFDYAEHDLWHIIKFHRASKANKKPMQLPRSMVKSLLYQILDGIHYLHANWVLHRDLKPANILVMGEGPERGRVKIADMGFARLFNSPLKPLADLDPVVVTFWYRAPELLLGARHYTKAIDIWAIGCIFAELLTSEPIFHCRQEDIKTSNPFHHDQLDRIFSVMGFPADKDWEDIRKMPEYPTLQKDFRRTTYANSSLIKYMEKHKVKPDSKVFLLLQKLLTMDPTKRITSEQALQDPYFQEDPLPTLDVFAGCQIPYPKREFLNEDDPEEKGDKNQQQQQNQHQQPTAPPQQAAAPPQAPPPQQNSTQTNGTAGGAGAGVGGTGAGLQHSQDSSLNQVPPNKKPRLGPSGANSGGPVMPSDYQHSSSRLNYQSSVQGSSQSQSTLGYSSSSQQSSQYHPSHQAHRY
Chain of CDK19/CycC (P24863 whole entry partner): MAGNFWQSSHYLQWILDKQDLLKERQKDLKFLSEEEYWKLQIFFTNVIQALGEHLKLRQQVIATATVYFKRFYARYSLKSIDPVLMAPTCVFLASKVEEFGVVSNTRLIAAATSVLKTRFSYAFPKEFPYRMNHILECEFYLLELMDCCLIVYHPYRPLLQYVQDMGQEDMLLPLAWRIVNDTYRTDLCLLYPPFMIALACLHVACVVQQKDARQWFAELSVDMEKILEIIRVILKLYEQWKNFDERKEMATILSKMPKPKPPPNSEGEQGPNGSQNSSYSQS
Experimental: as §1
To a kinase buffer cocktail solution (i.e., 5× Kinase Buffer A) was added: purified recombinant his-tagged CDK19/CycC protein (5 nM), ATP-competitive kinase inhibitor scaffold kinase tracer Alexa Fluor® 665 (10 nM), biotin anti-his tag antibody (2 nM), LanthaScreen® europium-streptavidin (2 nM). An aliquot of the cocktail solution (10 μL) was added to each well of a LUMITRAC™ 200:384 flat bottom, non-treated microtiter white plate. The plate was then covered to protect light sensitive reagents and incubated for 30 min at room temperature to equilibrate before addition of any inhibitors.
as §2, §3

Chain of CDK8 (P49336 whole entry): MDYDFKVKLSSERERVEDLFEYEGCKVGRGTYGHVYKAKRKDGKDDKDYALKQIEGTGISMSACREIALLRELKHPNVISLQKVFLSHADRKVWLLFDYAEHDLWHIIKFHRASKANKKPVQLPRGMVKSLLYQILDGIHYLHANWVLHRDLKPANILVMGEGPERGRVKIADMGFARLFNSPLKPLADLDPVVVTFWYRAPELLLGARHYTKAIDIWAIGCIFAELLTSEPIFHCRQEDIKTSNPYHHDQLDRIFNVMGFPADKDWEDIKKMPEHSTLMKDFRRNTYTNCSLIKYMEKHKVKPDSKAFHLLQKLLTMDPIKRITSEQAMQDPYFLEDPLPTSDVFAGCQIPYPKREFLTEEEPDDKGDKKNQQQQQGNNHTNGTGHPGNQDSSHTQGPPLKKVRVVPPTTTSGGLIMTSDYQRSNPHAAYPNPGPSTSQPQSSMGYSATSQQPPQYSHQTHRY
Chain of CDK8 (P24863 whole entry partner): as the sequence (P24863 whole entry partner) above

Row | IC50 [1] [nM] | CDK19 Selectivity [2] | IC50 [2] [nM] | Structure (SMILES)
1 | 10000 | 1 | 10000 | CC(C)Cc1ccc(Nc2ncc(-c3cc[nH]c(=O)c3)cn2)cc1 [Compound A141]
2 | 3.5 | 2.4 | ≤ 2.5 | CC(C)Cc1ccc(Nc2ncc(C(=O)c3ccncc3)cn2)c(F)c1 [Compound A129]
3 | 14000 |  | 10000 | Fc1ccc(Nc2ncc(Nc3ccncc3)cn2)cc1 [Compound A7]
4 | 10000 | 9 | 1110 | Cc1cccc(-c2cnc(Nc3ccc(CC(C)C)cc3)nc2)c1 [Compound A86]
5 | 129 | 4 | 36 | CC(C)Cc1ccc(Nc2ncc(Nc3cc(F)ncc3F)cn2)cc1 [Compound A175]
6 | 226 | 3 | 75 | CC(C)Cc1ccc(Nc2ncc(Nc3ccncc3C3CC3)cn2)cc1 [Compound A164]
7 | 12 | 1 | 12 | CCc1cnccc1Nc1cnc(Nc2ccc(C3CCCCC3)cc2)nc1 [Compound A68]
8 | 7 | 1 | 7.6 | COc1cnccc1Nc1cnc(Nc2ccc(CC(C)C)cc2F)nc1 [Compound A61]
9 | 833 | 2 | 449 | Cc1cc(Nc2cnc(Nc3ccc(CC4CC4)cc3)nc2)ccn1 [Compound A42]
10 | 10000 |  | 10000 | Cc1cc(Nc2cnc(Nc3cccc(CC(C)C)c3)nc2)cc(C)n1 [Compound A30]
11 | ≤ 2.5 | ≤1 | ≤ 2.5 | O=C(c1cnc(Nc2ccc(C3CCOCC3)cc2)nc1)c1ccncc1OC1CCCC1 [Compound A179]
12 | 16 |  | 24 | CC(C)Cc1ccc(Nc2ncc(Nc3ccncc3-c3cnn(C4CC4)c3)cn2)cc1 [Compound A158]
13 | 371 | 2.8 | 133 | c1cc(Nc2cnc(Nc3ccc(C4CC4)cc3)nc2)ccn1 [Compound A16]
14 | 2270 | 2 | 1160 | Cc1cc(Nc2cnc(Nc3ccc(CC(C)C)cc3)nc2)c(C)cn1 [Compound A65]
15 | 198 | 2.4 | 84 | CC(C)Cc1ccc(Nc2ncc(-c3cccnc3)cn2)cc1 [Compound A87]
16 | 178 | 1 | 219 | CC(C)Cc1ccc(Nc2ncc(Nc3ccncc3C(=O)NC3CCCC3)cn2)cc1 [Compound A146]
17 | 10 |  | ≤ 2.5 | CCOc1ccc(Nc2ncc(Nc3ccncc3C(F)(F)F)cn2)cc1 [Compound A178]
18 | 210 | 5.5 | 38 | Cc1nc(Nc2ccc(CC(C)C)cc2)ncc1Nc1ccncc1 [Compound A6]
19 | 8940 | 1 | 8940 | Cc1cc(Nc2ncc(Nc3ccncc3)cn2)ccc1F [Compound A41]
20 | 8.2 | 1.1 | 7.6 | c1cc(Nc2cnc(Nc3ccc(C4CCCC4)cc3)nc2)c(OC2CCCC2)cn1 [Compound A3]
21 | 25 | 2 | 16 | COc1cc(CC(C)C)ccc1Nc1ncc(C(=O)c2ccncc2OC2CCCC2)cn1 [Compound A171]
22 | 3 | 1.5 | ≤ 2.5 | Cc1cncc(F)c1Nc1cnc(Nc2ccc(CC(C)C)cc2)nc1 [Compound A62]
23 | 3 | 2 | ≤ 2.5 | CC(C)Cc1ccc(Nc2ncc(Nc3ccncc3Cl)cn2)cc1 [Compound A57]
24 | 1430 | 5.1 | 283 | CC(C)Cc1ccc(Nc2ncc(-c3ccc(=O)[nH]c3)cn2)cc1 [Compound A100]
25 | 14 | 1.2 | 11 | c1cc(Nc2cnc(Nc3ccc(C4COC4)cc3)nc2)c(OC2CCCC2)cn1 [Compound A2]
